Measurements as given in the supplement of paper PMC4862054.

Assays:
Settings in all cases: incubation time: 72 h
CAL-120 = test: normalised viability (% of control), CellTiter-Blue; higher = more viable cells (about 100 = DMSO control)
Outline: (§1)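 The reported figure is normalised viability at a single listed concentration of the series. Breast cancer cell lines (20 µl suspension) went onto 384-well plates holding compound in 5 µl medium for 72 h. CellTiter-Blue (2.5 µl, 2 h, 37 °C) was read by fluorescence at 560/590 nm, and each plate was scaled to vehicle at 100 and a positive kill control at 0.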

MDA-MB-468 = test: as above
Outline: as §1

CAL-148 [1] = test: as above
Outline: as §1

HCC1599 [2] = test: as above
Outline: as §1

SK-BR-3 = test: as above
Outline: as §1

HCC1143 [3] = test: as above
Outline: as §1

MDA-MB-436 [4] = test: as above
Outline: as §1

MFM-223 = test: as above
Outline: as §1

BT-474 = test: as above
Outline: as §1

Hs578T = test: as above
Outline: as §1

CAL-85-1 [5] = test: as above
Outline: as §1

BT-549 [6] = test: as above
Outline: as §1

HDQ-P1 = test: as above
Outline: as §1

MDA-MB-453 = test: as above
Outline: as §1

CAL-51 [7] = test: as above
Outline: as §1

MDA-MB-231 = test: as above
Outline: as §1

CAL-148 [8] = test: drug sensitivity score (DSS), CellTiter-Glo (DSS (AUC-based score)); higher = stronger drug effect (viability inhibition or cytotoxicity); extreme values may be limits of the assay
Outline: (§2)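 Plates with 384 wells held compound at 5 concentrations in 10-fold steps over a 10,000-fold range specific to each compound. Breast cancer cell lines were added in 20 µl suspension and incubated 72 h, then read for CellTox Green and CellTiter-Glo signals, with each plate normalised to 0.1 % DMSO and a positive kill control. The drug sensitivity score is based on the area under the fitted dose-response curve.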

MCF-10A = test: as above
Outline: as §2

HCC1599 [9] = test: as above
Outline: as §2

HCC1143 [10] = test: as above
Outline: as §2

MDA-MB-436 [11] = test: as above
Outline: as §2

CAL-85-1 [12] = test: as above
Outline: as §2

BT-549 [13] = test: as above
Outline: as §2

CAL-51 [14] = test: as above
Outline: as §2

Cc1[nH]c2ccccc2c1CCNCc1ccc(/C=C/C(=O)NO)cc1 [Panobinostat]
normalised viability [%]
Settings | 0.3 nM | 1 nM | 3 nM | 10 nM | 100 nM | 1000 nM
BT-474 | – | 118 | – | – | 4.44 | 9.36
BT-549 [6] | – | 97.7 | – | – | 68.7 | 14.7
CAL-51 [7] | 113 | – | 111 | 97.2 | – | –
CAL-85-1 [5] | 98 | – | 88.3 | 81.4 | – | –
CAL-120 | – | 109 | – | – | 9.65 | 3.59
CAL-148 [1] | 96.5 | – | 104 | 59.4 | – | –
HCC1143 [3] | – | 102 | – | – | 20.7 | 12.2
HCC1599 [2] | – | 99.7 | – | – | 23 | 16.3
HDQ-P1 | 120 | – | 115 | 93.1 | – | –
Hs578T | – | 152 | – | – | 13.8 | 5.54
MDA-MB-231 | – | 120 | – | – | 13.3 | 7.26
MDA-MB-436 [4] | – | 110 | – | – | 59.1 | 17
MDA-MB-453 | 121 | – | 64.3 | 22.7 | – | –
MDA-MB-468 | – | 108 | – | – | 52.2 | 16.7
MFM-223 | – | 102 | – | – | 20.2 | 14.8
SK-BR-3 | – | 96.9 | – | – | 5.41 | 3.54

Settings | drug sensitivity score
BT-549 [13] | 11.1
CAL-51 [14] | 17.2
CAL-85-1 [12] | 16.5
CAL-148 [8] | 20
HCC1143 [10] | 15.1
HCC1599 [9] | 14.7
MCF-10A | 11.1
MDA-MB-436 [11] | 10.2
